# Experimental data reported in patent publication US10858335B2 (Rigel Pharmaceuticals, Inc., priority 2014, dated 2020).
# System: GDF8 signaling (p-SMAD-3 (Ser423/425))
# Test: AlphaScreen SureFire SMAD3 (p-Ser423/425) assay, GDF8-stimulated cells (GDF pSMAD)
# Format: cell-based
# Conditions: MPC11; GDF8-stimulated; p-SMAD3 AlphaScreen; read-out: GDF pSMAD (MPC11) (inhibition of GDF8 signaling)
row,SMILES,IC50 [nM]
1,"Nc1ncnc2ccc(-c3cccnc3-c3ccc(F)c(Cl)c3)cc12 [compound 448, 6-(2-(3-Chloro-4-fluorophenyl)pyridin-3-yl)quinazolin-4-amine]",137

# Same assay, conditions: Mus musculus, MPC-11, MPC11; GDF8-stimulated; p-SMAD3 AlphaScreen; read-out: GDF pSMAD (MPC11) (inhibition of GDF8 signaling)
row,SMILES,IC50 [nM]
1,"Cc1cc(-c2ncccc2-c2ccc3ncnc(NC4CCCC4)c3c2)ccc1F [compound 405, N-Cyclopentyl-6-(2-(4-fluoro-3-methylphenyl)pyridin-3-yl)quinazolin-4-amine]",10700
2,"Cc1cc(-c2ncccc2-c2ccc3ncnc(Nc4ccc(C(N)=O)cc4)c3c2)ccc1F [compound 406, 4-((6-(2-(4-Fluoro-3-methylphenyl)pyridin-3-yl)quinazolin-4-yl)amino)benzamide]",2790
3,"COc1ccc(Nc2ncnc3ccc(-c4cccnc4-c4ccc(F)c(C)c4)cc23)cc1 [compound 407, 6-(2-(4-Fluoro-3-methylphenyl)pyridin-3-yl)-N-(4-methoxyphenyl)quinazolin-4-amine]",2470
4,"Cc1cc(-c2ncccc2-c2ccc3ncnc(Nc4ccc(N5CCOCC5)cc4)c3c2)ccc1F [compound 408, 6-(2-(4-Fluoro-3-methylphenyl)pyridin-3-yl)-N-(4-morpholinophenyl)quinazolin-4-amine]",673
5,"Cc1cc(-c2ncccc2-c2ccc3ncnc(Nc4ccc(C#N)cc4)c3c2)ccc1F [compound 409, 4-((6-(2-(4-Fluoro-3-methylphenyl)pyridin-3-yl)quinazolin-4-yl)amino)benzonitrile]",7950
6,"Cc1cc(-c2ncccc2-c2ccc3ncnc(Nc4cccc(C(N)=O)c4)c3c2)ccc1F [compound 410, 3-((6-(2-(4-Fluoro-3-methylphenyl)pyridin-3-yl)quinazolin-4-yl)amino)benzamide]",4130
7,"Nc1ncnc2ccc(-c3cccnc3-c3cccc(C4CC4)c3)cc12 [compound 411, 6-(2-(3-Cyclopropylphenyl)pyridin-3-yl)quinazolin-4-amine]",72.5
8,"Cc1cc(-c2ncccc2-c2ccc3ncnc(NCCc4cccnc4)c3c2)ccc1F [compound 414, 6-(2-(4-Fluoro-3-methylphenyl)pyridin-3-yl)-N-(2-(pyridin-3-yl)ethyl)quinazolin-4-amine]",3330
9,"Cc1cc(-c2ncccc2-c2ccc3ncnc(NCc4ccncc4)c3c2)ccc1F [compound 415, 6-(2-(4-Fluoro-3-methylphenyl)pyridin-3-yl)-N-(pyridin-4-ylmethyl)quinazolin-4-amine]",11800
10,"Cc1cc(-c2ncccc2-c2ccc3ncnc(NCc4cccnc4)c3c2)ccc1F [compound 416, 6-(2-(4-Fluoro-3-methylphenyl)pyridin-3-yl)-N-(pyridin-3-ylmethyl)quinazolin-4-amine]",4860
11,"Cc1cc(-c2ncccc2-c2ccc3ncnc(NCC4CCN(C)CC4)c3c2)ccc1F [compound 421, 6-(2-(4-Fluoro-3-methylphenyl)pyridin-3-yl)-N-((1-methylpiperidin-4-yl)methyl)quinazolin-4-amine]",1400
12,"Cc1cc(-c2ncccc2-c2ccc3ncnc(NCCC4CCN(C)CC4)c3c2)ccc1F [compound 422, 6-(2-(4-Fluoro-3-methylphenyl)pyridin-3-yl)-N-(2-(1-methylpiperidin-4-yl)ethyl)quinazolin-4-amine]",1280
13,"Cc1cc(-c2ncccc2-c2ccc3ncnc(NCCCN(C)C)c3c2)ccc1F [compound 423, N1-(6-(2-(4-Fluoro-3-methylphenyl)pyridin-3-yl)quinazolin-4-yl)-N3,N3-dimethylpropane-1,3-diamine]",628
14,"Cc1cc(-c2ncccc2-c2ccc3ncnc(NCCCN4CCOCC4)c3c2)ccc1F [compound 424, 6-(2-(4-Fluoro-3-methylphenyl)pyridin-3-yl)-N-(3-morpholinopropyl)quinazolin-4-amine]",2430
15,"Cc1cc(-c2ncccc2-c2ccc3ncnc(OCCCN(C)C)c3c2)ccc1F [compound 429, 3-((6-(2-(4-Fluoro-3-methylphenyl)pyridin-3-yl)quinazolin-4-yl)oxy)-N,N-dimethylpropan-1-amine]",384
16,"Cc1cc(-c2ncccc2-c2ccc3ncnc(OCC#N)c3c2)ccc1F [compound 430, 2-((6-(2-(4-Fluoro-3-methylphenyl)pyridin-3-yl)quinazolin-4-yl)oxy)acetonitrile]",475
17,"Cc1cc(-c2ncccc2-c2ccc3ncnc(OCCCN4CCCC4=O)c3c2)ccc1F [compound 431, 1-(3-((6-(2-(4-Fluoro-3-methylphenyl)pyridin-3-yl)quinazolin-4-yl)oxy)propyl)pyrrolidin-2-one]",374
18,"Cc1ccc(Oc2ncnc3ccc(-c4cccnc4-c4ccc(F)c(C)c4)cc23)cn1 [compound 432, 6-(2-(4-Fluoro-3-methylphenyl)pyridin-3-yl)-4-((6-methylpyridin-3-yl)oxy)quinazoline]",513
19,"Cc1cc(-c2ncccc2-c2ccc3ncnc(OCCN4CCN(C)CC4)c3c2)ccc1F [compound 433, 6-(2-(4-Fluoro-3-methylphenyl)pyridin-3-yl)-4-(2-(4-methylpiperazin-1-yl)ethoxy)quinazoline]",285
20,"Cc1cc(-c2ncccc2-c2ccc3ncnc(OCCCN4CCN(C)CC4)c3c2)ccc1F [compound 434, 6-(2-(4-Fluoro-3-methylphenyl)pyridin-3-yl)-4-(3-(4-methylpiperazin-1-yl)propoxy)quinazoline]",1490

row,SMILES,IC50 [nM]
1,"CN(C)CCCOc1ncnc2ccc(-c3cccnc3-c3ccc(F)c(Cl)c3)cc12 [compound 435, 3-((6-(2-(3-Chloro-4-fluorophenyl)pyridin-3-yl)quinazolin-4-yl)oxy)-N,N-dimethylpropan-1-amine]",608
2,"O=C1CCCN1CCCOc1ncnc2ccc(-c3cccnc3-c3ccc(F)c(Cl)c3)cc12 [compound 436, 1-(3-((6-(2-(3-Chloro-4-fluorophenyl)pyridin-3-yl)quinazolin-4-yl)oxy)propyl)pyrrolidin-2-one]",1180
3,"Cc1ccc(Oc2ncnc3ccc(-c4cccnc4-c4ccc(F)c(Cl)c4)cc23)cn1 [compound 437, 6-(2-(3-Chloro-4-fluorophenyl)pyridin-3-yl)-4-((6-methylpyridin-3-yl)oxy)quinazoline]",739
4,"CCN(CC)CCOc1ncnc2ccc(-c3cccnc3-c3ccc(F)c(Cl)c3)cc12 [compound 438, 2-((6-(2-(3-Chloro-4-fluorophenyl)pyridin-3-yl)quinazolin-4-yl)oxy)-N,N-diethylethan-1-amine]",959
5,"CN(C)CCOc1ncnc2ccc(-c3cccnc3-c3ccc(F)c(Cl)c3)cc12 [compound 439, 2-((6-(2-(3-Chloro-4-fluorophenyl)pyridin-3-yl)quinazolin-4-yl)oxy)-N,N-dimethylethan-1-amine]",738
6,"Cc1cc(-c2ncccc2-c2ccc3ncnc(Oc4ccc(C#N)cc4)c3c2)ccc1F [compound 440, 4-((6-(2-(4-Fluoro-3-methylphenyl)pyridin-3-yl)quinazolin-4-yl)oxy)benzonitrile]",1860
7,"Cc1cc(-c2ncccc2-c2ccc3ncnc(Oc4cccc(C#N)c4)c3c2)ccc1F [compound 441, 3-((6-(2-(4-Fluoro-3-methylphenyl)pyridin-3-yl)quinazolin-4-yl)oxy)benzonitrile]",1160
8,"Cc1cc(-c2ncccc2-c2ccc3ncnc(Oc4cccnc4)c3c2)ccc1F [compound 442, 6-(2-(4-Fluoro-3-methylphenyl)pyridin-3-yl)-4-(pyridin-3-yloxy)quinazoline]",366
9,"Cc1cc(-c2ncccc2-c2ccc3ncnc(OCCN4CCCC4)c3c2)ccc1F [compound 443, 6-(2-(4-Fluoro-3-methylphenyl)pyridin-3-yl)-4-(2-(pyrrolidin-1-yl)ethoxy)quinazoline]",429
10,"Cc1cc(-c2ncccc2-c2ccc3ncnc(Oc4cccc(N5CCOCC5)c4)c3c2)ccc1F [compound 444, 4-(3-((6-(2-(4-Fluoro-3-methylphenyl)pyridin-3-yl)quinazolin-4-yl)oxy)phenyl)morpholine]",1080
11,"Cc1cc(-c2ncccc2-c2ccc3ncnc(OCCc4scnc4C)c3c2)ccc1F [compound 445, 5-(2-((6-(2-(4-Fluoro-3-methylphenyl)pyridin-3-yl)quinazolin-4-yl)oxy)ethyl)-4-methylthiazole]",515
12,"Cc1cc(-c2ncccc2-c2ccc3ncnc(Oc4ccc5ncccc5c4)c3c2)ccc1F [compound 446, 6-(2-(4-Fluoro-3-methylphenyl)pyridin-3-yl)-4-(quinolin-6-yloxy)quinazoline]",398
13,"Cc1cc(-c2ncccc2-c2ccc3ncnc(OC4CCN(c5ccncc5)CC4)c3c2)ccc1F [compound 447, 6-(2-(4-Fluoro-3-methylphenyl)pyridin-3-yl)-4-((1-(pyridin-4-yl)piperidin-4-yl)oxy)quinazoline]",753
14,"Nc1ncnc2ccc(-c3cccnc3-c3cc(Cl)ccc3F)cc12 [compound 449, 6-(2-(5-Chloro-2-fluorophenyl)pyridin-3-yl)quinazolin-4-amine]",68.6
15,"Nc1ncnc2ccc(-c3cccnc3-c3cc(Cl)c(F)cc3F)cc12 [compound 450, 6-(2-(5-Chloro-2,4-difluorophenyl)pyridin-3-yl)quinazolin-4-amine]",136
16,"COc1cccc(-c2ncccc2-c2ccc3ncnc(N)c3c2)c1 [compound 451, 6-(2-(3-Methoxyphenyl)pyridin-3-yl)quinazolin-4-amine]",115
17,"Nc1ncnc2ccc(-c3cccnc3-c3cccc(OC(F)(F)F)c3)cc12 [compound 452, 6-(2-(3-(Trifluoromethoxy)phenyl)pyridin-3-yl)quinazolin-4-amine]",223
18,"Nc1ncnc2ccc(-c3cccnc3-c3ccc(F)c(F)c3)cc12 [compound 453, 6-(2-(3,4-Difluorophenyl)pyridin-3-yl)quinazolin-4-amine]",816
19,"Nc1ncnc2ccc(-c3cccnc3-c3cc(F)ccc3F)cc12 [compound 454, 6-(2-(2,5-Difluorophenyl)pyridin-3-yl)quinazolin-4-amine]",926
20,"Nc1ncnc2ccc(-c3cccnc3-c3ccc(F)cc3F)cc12 [compound 455, 6-(2-(2,4-Difluorophenyl)pyridin-3-yl)quinazolin-4-amine]",1160
